Measured values as given in US11919900B1 (priority 2023, dated 2024).
Converted amounts (≈) assume the structure as drawn.

How the values were obtained:
[1] = tested on: extensively drug resistant (XDR) strains of Mycobacterium tuberculosis; assay: microbe, parasite or virus in culture; assay type: cell-based; conditions: 192 h, read-out: Antitubercular activity against Mycobacterium tuberculosis XDR (MIC)
[2] = tested on: multidrug-resistant (MDR) strains of Mycobacterium tuberculosis; assay: microbe, parasite or virus in culture; assay type: cell-based; conditions: for MIC: Mycobacterium tuberculosis, 192 h, read-out: Antitubercular activity against Mycobacterium tuberculosis MDR (MIC)

Compound: COC(=O)c1c(C(=O)OC)c2c(Br)cc3ccccc3n2c1C(=O)c1ccc(OC)cc1 [QUIN-KNV1, Dimethyl 4-bromo-1-(4-methoxybenzoyl)pyrrolo[1,2-a]quinoline-2,3-dicarboxylate]
- MIC [1]: 2 µg/mL (≈ 4.03 µM)
- MIC [2]: 2 µg/mL (≈ 4.03 µM)

Compound: CCOC(=O)c1cc(C(=O)c2ccc(Cl)cc2)n2c1c(Br)cc1ccccc12 [QUIN-KNV4, Ethyl 4-bromo-1-(4-chlorobenzoyl)pyrrolo[1,2-a]quinoline-3-carboxylate]
- MIC [2]: 8 µg/mL (≈ 17.5 µM)

Compound: COC(=O)c1c(C(=O)OC)c2c(Br)cc3ccccc3n2c1C(=O)c1ccc(Cl)cc1 [QUIN-KNV3, Dimethyl 4-bromo-1-(4-chlorobenzoyl)pyrrolo[1,2-a]quinoline-2,3-dicarboxylate]
- MIC [1]: 4 µg/mL (≈ 7.99 µM)
- MIC [2]: 4 µg/mL (≈ 7.99 µM)

Compound: COC(=O)c1c(C(=O)OC)c2c(Br)cc3ccccc3n2c1C(=O)c1ccccc1 [QUIN-KNV11, Dimethyl 1-benzoyl-4-bromopyrrolo[1,2-a]quinoline-2,3-dicarboxylate]
- MIC [2]: 16 µg/mL (≈ 34.3 µM)

Compound: CCOC(=O)c1cc(C(=O)c2ccc(F)cc2)n2c1c(Br)cc1ccccc12 [QUIN-KNV8, Ethyl 4-bromo-1-(4-fluorobenzoyl)pyrrolo[1,2-a]quinoline-3-carboxylate]
- MIC [1]: 4 µg/mL (≈ 9.09 µM)
- MIC [2]: 4 µg/mL (≈ 9.09 µM)

Compound: CCOC(=O)c1cc(C(=O)c2ccc(OC)cc2)n2c1c(Br)cc1ccccc12 [QUIN-KNV2, Ethyl 4-bromo-1-(4-methoxybenzoyl)pyrrolo[1,2-a]quinoline-3-carboxylate]
- MIC [1]: 4 µg/mL (≈ 8.84 µM)
- MIC [2]: 4 µg/mL (≈ 8.84 µM)

Compound: Ethyl 4-bromo-1-(2-nitrobenzoyl)pyrrolo[1,2-a]quinoline-3-carboxylate [QUIN-KNV12]
- Antitubercular activity against Mycobacterium tuberculosis MDR (MIC) ([2]; MDR-TB, drug resistance at least to isoniazid and rifampicin, REMA, 8 days at 37° C. then resazurin overnight): 8 µg/mL

Compound: COC(=O)c1c(C(=O)OC)c2c(Br)cc3ccccc3n2c1C(=O)c1ccc(C#N)cc1 [QUIN-KNV9, Dimethyl 4-bromo-1-(4-cyanobenzoyl)pyrrolo[1,2-a]quinoline-2,3-dicarboxylate]
- MIC [1]: 16 µg/mL (≈ 32.6 µM)
- MIC [2]: 8 µg/mL (≈ 16.3 µM)

Compound: CCOC(=O)c1cc(C(=O)c2ccc(C#N)cc2)n2c1c(Br)cc1ccccc12 [QUIN-KNV10, Ethyl 4-bromo-1-(4-cyanobenzoyl)pyrrolo[1,2-a]quinoline-3-carboxylate]
- MIC [2]: 16 µg/mL (≈ 35.8 µM)

Compound: COC(=O)c1c(C(=O)OC)c2c(Br)cc3ccccc3n2c1C(=O)c1ccc(F)cc1 [QUIN-KNV7, Dimethyl 4-bromo-1-(4-fluorobenzoyl)pyrrolo[1,2-a]quinoline-2,3-dicarboxylate]
- MIC [2]: 16 µg/mL (≈ 33 µM)

Compound: CCOC(=O)c1cc(C(=O)c2ccc(Br)cc2)n2c1c(Br)cc1ccccc12 [QUIN-KNV6, Ethyl 4-bromo-1-(4-bromobenzoyl)pyrrolo[1,2-a]quinoline-3-carboxylate]
- MIC [1]: 4 µg/mL (≈ 7.98 µM)
- MIC [2]: 4 µg/mL (≈ 7.98 µM)

Compound: COC(=O)c1c(C(=O)OC)c2c(Br)cc3ccccc3n2c1C(=O)c1ccc(Br)cc1 [QUIN-KNV5, Dimethyl 4-bromo-1-(4-bromobenzoyl)pyrrolo[1,2-a]quinoline-2,3-dicarboxylate]
- MIC [1]: 2 µg/mL (≈ 3.67 µM)
- MIC [2]: 1 µg/mL (≈ 1.83 µM)
